Earlier results on one molecule are cited in patent CN111214447A, “一种甲磺酸沙芬酰胺固体组合物及其制备方法” (Beijing Wanquan Dezhong Medical Biological Technology Co Ltd, priority 2018, dated 2020).

Values after ≈ are worked out from the molar mass of the structure shown.

One may read the solubility as the concentration that dissolves in the medium under given conditions.

For this series the following is noted: aqueous medium, pH=7.

Regarding `C[C@H](NCc1ccc(OCc2cccc(F)c2)cc1)C(N)=O` [沙芬酰胺, 甲磺酸], the solubility is 10 µg/mL (≈ 33.1 µM).
